# From patent US8329218B2, “Unusually stable glasses and methods for forming same” (Wisconsin Alumni Research Foundation, priority 2007, dated 2012)
# Tests used:
# [1] = Differential scanning calorimetry of glass stability (onset temperature, fictive temperature, θK); type: physicochemical; settings: for Tg (onset temperature) of ordinary glass: ordinary glass cooled from the liquid; for enthalpies and Tfic values of vapor-deposited samples relative to ordinary glass: samples prepared by vapor deposition
# From the text: Differential scanning calorimetry (DSC) was used to examine the kinetics and thermodynamics of vapor-deposited samples created by heating crystalline TNB or IMC in a vacuum. To move a sample from the glass to the supercooled liquid, energy must be supplied to the sample. In DSC, this energy is supplied as heat to the system as the temperature is ramped from a temperature below the glass transition into the supercooled liquid regime. For an ordinary glass that is cooled from the melt the amount of energy needed to do this is observed by a change in heat capacity at Tg. […] An endothermic heat characteristic will be observed in these cases, often referred to as an enthalpy overshoot, where the size and temperature of the overshoot indicate the amount of stability.
# This scan was continued to above the melting point, after which the sample was cooled at 40 K/min into the glass and then scanned again to yield the leftmost curve. This latter-curve represents the behavior of an ordinary glass of TNB, with Tg=347 K, as defined by the onset temperature; it is consistent with previously reported results for TNB (C. M. Whitaker, R. J. McMahon J. Phys. Chem. 100, 1081 (1996); J. H. Magill, J. Chem. Phys. 47, 2802 (1967)). The DSC instrument was calibrated using an indium standard.
# The fictive-temperature (Tfic) of the glasses, as defined below, was calculated in order to quantify the thermodynamic stability of the vapor-deposited materials. Lower Tfic values indicate a lower position on the energy landscape. The enthalpy for TNB and IMC samples, obtained by integrating Cp, is plotted in FIG. 1B. […] The supercooled liquid enthalpy curve was calculated by determining the temperature dependence of the enthalpy between the glass transition and the melting point and extrapolating this dependence to lower temperatures. […] Based upon aging experiments on TNB (D. J. Plazek, J. H. Magill, J. Chem. Phys. 45, 3038 (1966)), it is estimated that it would require at least 40 years of annealing an ordinary glass to match Tfic for the vapor-deposited sample shown in FIG. 1.
# The Kauzmann temperature and θK were also calculated. For TNB, Magill estimated TK=270 K (J. H. Magill, J. Chem. Phys. 47, 2802 (1967)). […] In comparison, annealing the ordinary glass at 296 K (θK=0.09) or 328 K (θK=0.22) is relatively ineffective. […] Of annealing achieved θK≦0.17 (A. J. Kovacs, Fortschr Hochpolym-Forsch. 3, 394 (1963)).
# [2] = Quasi-isothermal temperature modulated DSC: transformation of glass to supercooled liquid; type: physicochemical; settings: ordinary glass; Tanneal 319 K
# Procedure: The stable glass was prepared by vapor depositing IMC onto an aluminum substrate using the method described in Example 1, above. The substrate was held at a temperature of 265 K and a deposition rate of 2 Å/s was used. For comparison, an “ordinary” glass sample was also prepared by melting the vapor-deposited IMC glass and cooling the resulting liquid at a rate of 40 K/min.
# The kinetic stability of the stable IMC glass was explored in quasi-isothermal temperature modulated differential scanning calorimetry (qi-TMDSC) experiments. In these experiments a TA instruments Q2000 DSC was used. After vapor deposition, the samples were placed in the DSC at room temperature. A temperature jump from room temperature to the annealing-temperature was carried out. At room temperature the sample was a glass, and the annealing temperature was chosen such that it was higher than the ordinary glass Tg (315 K). The temperature jump defines t=0. In addition to the instantaneous temperature jump a small sinusoidal temperature fluctuation was imposed (amplitude: 0.5: K, period: 60 seconds) which allows; one to measure the reversing heat capacity as a function of time.
# [3] = Water uptake: weight change as a function of relative humidity (sorption apparatus); type: physicochemical
# Procedure: The stable glass was prepared by vapor depositing IMC onto an aluminum substrate using the method described in Example 1, above. The substrate was held at a temperature of 265 K and a deposition rate of 2 Å/s was used. For comparison, two “ordinary” glass samples were also prepared. These were formed by vapor-deposition at 315 K. In addition, water uptake was measured for a crystalline IMC glass. Weight change as a function of relative humidity was measured for the ordinary glasses, stable glass, and crystalline IMC. The multiple curves for a given sample are from cycles where the relative humidity (RH) was stepped up and back down. A TA instruments Q5000SA sorption apparatus was used to induce relative humidity step changes and measure the steady-state weight change response. For the crystalline IMC (lowest curve), at 50% RH less than 0.1% weight change was observed. By contrast: the ordinary glass (uppermost curves) absorbed nearly one weight percent at a RH of 50%. The measured percent weight change observed here matches previous data obtained for ordinary IMC glasses and crystalline IMC by Zografi and coworkers. (See Andronis et al., J. Pharm. Sci. 86, 346 (1997).)
# [4] = Density of vapor-deposited films by x-ray reflectivity; type: physicochemical; settings: deposition at 296 K
# From the text: The present vapor-deposition methods can also create unusually dense glasses. The ratio of the density of vapor-deposited TNB (ρVD) to that of the ordinary glass (ρo, prepared by cooling from the liquid), increases as the deposition temperature is lowered toward 0.85 Tg (FIG. 2). Also shown as the solid line is a prediction of the density if vapor-deposition produced an equilibrium supercooled liquid at the deposition temperature (D. J. Plazek, J. H. Magill, J. Chem. Phys. 45, 3038 (1966)). For this range of deposition temperatures, the samples nearly achieve this upper bound for density. If a fictive temperature is defined based upon density, deposition at 296 K produces Tfic≈300 K, slightly lower than the fictive temperature based upon the enthalpy. Fictive temperatures based on densities can be determined from FIG. 2, by horizontally shifting the points to overlap with the line shown.
# The data in FIG. 2 were determined from x-ray reflectivity measurements made on as-prepared films of TNB and on the same films after thermal equilibration above Tg. All x-ray data was taken at room temperature. […] Since the area of the film was the same before and after annealing, the ratio of the densities equals the inverse of the ratio of the thicknesses, and this is reported in FIG. 2. […]
# [5] = Neutron reflectivity of interdiffusion in h-TNB/d-TNB multilayer films during annealing; type: physicochemical
# Procedure: Neutron reflectivity was used to characterize diffusion in ordinary and stable glasses of TNB. The high spatial resolution and large contrast in the scattering length of neutrons for hydrogen and deuterium nuclei make this an excellent technique for quantifying molecular motion. The neutron reflectivity experiments were conducted at the NIST Center for Neutron Research at the National Institute of Standards and Technology (NCNR-NIST). The NG7 horizontal reflectometer utilized a 4.76 Å collimated neutron beam, with a wavelength divergence of 0.18 Å. The angular divergence of the beam was varied through the reflectivity scan and this provided a relative q resolution Δq/q=0.04 (q=4π sin θ/λ, where θ is the incident and final angle with respect to the surface of the film, and where λ is the neutron wavelength).
# For the neutron reflectivity measurements, multilayer thin films of protio TNB (h-TNB) and deuterio TNB (d-TNB) were deposited onto 76-mm-diameter, 3-mm-thick silicon-wafers (Wafer World and Virginia Semiconductor), as described in S. F. Swallen, et al., J. Chem. Phys. 124, 184501 (2006). The silicon was used as received, retaining the native oxide coating. The deposition rate was typically 0.1 nm/s. Prior to deposition, the substrate was spin-coated with a 10-nm polystyrene layer (Polymer Source, ˜10^6 g/mol), which acted to minimize crystallization and dewetting of the TNB film during annealing. The polystyrene was made from a mixture of protio and perdeuterio chains, in order, to approximately match the neutron scattering length density of the first h-TNB layer. Following deposition, the samples were slowly cooled and held at room temperature for 1 to 5 days before neutron reflectivity measurements were obtained. The specular reflectivity R was measured as a function of beam angle relative to the sample surface. This value, multiplied by q^4 for clarity, is plotted as a function of the wavevector q. Reflectivity curves for samples vapor-deposited at different temperatures display diffraction peaks; as expected for the symmetric multi-layer samples, only odd diffraction orders are, present. For samples deposited at low temperature, diffraction can be observed up to the 13th order, indicating very sharp h-TNB/d-TNB interfaces. (S. F. Swallen et al; Science 315, 353 (2.007)). […]
# FIG. 4A illustrates the behavior of an ordinary glass annealed near Tg; as shown elsewhere (S. F. Swallen et al., J. Chem. Phys. 124, 184501 (2006)), interdiffusion in this sample is characteristic of the equilibrium liquid. […] The magnitude of this stability can be quantified in terms of the equilibrium structural relaxation time τα, known to be 250 s at 342 K (R. Richert, K. Duvvuri, L.-T. Duong, J. Chem. Phys. 118, 1828 (2003)). […]
# [6] = estimated by Magill; cited from earlier work
# [7] = at 342 K; cited from earlier work
# [8] = DSC of glasses made in a sublimation apparatus; settings: vapor deposition by sublimation, 8 mTorr
# From the text: A glass container that could be evacuated was used as a sublimation chamber. The lower part of the container held the material to be sublimed (“source material”). A condenser cooled by a circulating coolant was positioned above the source material. At the bottom of the condenser were attached a silicon wafer or aluminum DSC pans, which serves as surfaces for vapor deposition. The source material was heated to sublime by submerging the bottom the sublimation apparatus in an oil bath. The vapor produced by sublimation was deposited on the cooled collecting surfaces. The vacuum maintained during the operation of this device was 8 mTorr. A metal plate was placed over the source material until vapor deposition was to begin, at which time it was withdrawn magnetically. The sublimation rate was controlled by varying the oil bath temperature.
# Curve 1 corresponds to a glass prepared by vapor deposition onto a DSC pan held, at approximately Tg−50 K at a rate of ˜0.2 nm/s. Curve 2 corresponds to an ordinary glass, produced by cooling the liquid at a rate of 10 K/min. […] Curve 1 corresponds to a glass prepared by vapor deposition onto a DSC pan at approximately Tg−50 K at a rate of ˜0.4 nm is. […] Curve 2 corresponds to an ordinary glass produced by cooling the liquid at 10 K/min.
SMILES,Tg (onset temperature) of ordinary glass [1] [K],enthalpies and Tfic values of vapor-deposited samples relative to ordinary glass [1],response to temperature jump (transformation to supercooled liquid) [2],"weight change (water uptake) ([3]; crystalline, 50% RH)","weight change (water uptake) ([3]; ordinary glass (vapor-deposited at 315 K), RH of 50%)",water uptake of stable glass relative to ordinary glass ([3]; relative humidity of 50%),"weight change (water uptake) ([3]; stable glass (vapor-deposited at 265 K, 2 Å/s), relative humidity of 50%) [weight percent]",annealing time of an ordinary glass required to match Tfic of the vapor-deposited sample ([1]; estimated from aging experiments),"onset temperature ([1]; glass vapor-deposited onto substrate at 296 K, DSC heating 10 K/min) [K]",θK ([1]; ordinary glass annealed at 296 K),θK ([1]; ordinary glass annealed at 328 K),θK ([1]; vapor deposition at 296 K (0.85Tg)),Tfic (fictive temperature based upon density) [4],"interdiffusion of h-TNB/d-TNB during annealing ([5]; deposited at 296 K, 16 hours of annealing at 342 K)","interdiffusion of h-TNB/d-TNB during annealing ([5]; deposited at 330 K, 8 hours of annealing at 342 K)","induction time before diffusion ([5]; sample deposited at 0.85Tg, annealed at 342 K)","surface diffusion coefficient ([5]; vapor-deposited at 296 K, 0.1 nm/sec, order-of-magnitude estimate)",Kauzmann temperature TK [6] [K],equilibrium structural relaxation time τα [7] [s],stability of glass made in sublimation apparatus [8]
"COc1ccc2c(c1)c(CC(=O)O)c(C)n2C(=O)c1ccc(Cl)cc1 [IMC, indomethacin]",315,considerably lower,nearly instantaneous,less than 0.1%,one,one sixth,0.15,,,,,,,,,,,,,
"c1ccc2cc(-c3cc(-c4cccc5ccccc45)cc(-c4cccc5ccccc45)c3)ccc2c1 [TNB, 1,3-bis-(1-naphthyl)-5-(2-naphthyl)benzene]",347,considerably lower,,,,,,at least 40 years,363,0.09,0.22,0.43,≈ 300 K,no detectable interdiffusion occurred,substantial interfacial broadening had occurred,exceeds 200 τα,5×10^−16 cm^2/sec,270,250,
CCC1(c2ccccc2)C(=O)NC(=O)NC1=O [phenobarbital],,,,,,,,,,,,,,,,,,,,low fictive temperatures
